How the values were obtained:
[1] = tested on: wild type Arabidopsis seedlings; assay: Treatment of wild type seedlings, morphological phenotype; format: in vivo, Arabidopsis thaliana; conditions: 2,4-D or high concentrations of auxin
Excerpt: Expression of the plPAC gene of the present invention is inducible by auxin as described below in Example 4. Treatment of wild type Arabidopsis seedlings with 2,4-D or high concentrations of auxin result in plants with the same phenotype as that of ATPAC mutant plants. […] Under this model, tissues that express this pump would accumulate auxin as a result of the mutation and the altered auxin balance could be responsible for the altered growth patters typifying the ATPAC phenotype. Further support of this model is the similarity of auxin to indolylic substrates pumped by human MDR1, and the finding that ATPAC expression is increased by auxin.

[2] = biological target: T1, ATPAC (Arabidopsis thaliana, UniProt Q9LJX0, DUP906-907/P1064L); assay: NPA binding to yeast expressing ATPAC
T1 construct: The 3.76 kb cDNA clone encodes a polypeptide 1,254 amino acids in length; expressed in transfected cells; host or cells: yeast (wild type and a strain lacking seven ABC transporters)
T1 sequence (Q9LJX0 other isoform, or with tags, fused parts or gaps DUP906-907/P1064L): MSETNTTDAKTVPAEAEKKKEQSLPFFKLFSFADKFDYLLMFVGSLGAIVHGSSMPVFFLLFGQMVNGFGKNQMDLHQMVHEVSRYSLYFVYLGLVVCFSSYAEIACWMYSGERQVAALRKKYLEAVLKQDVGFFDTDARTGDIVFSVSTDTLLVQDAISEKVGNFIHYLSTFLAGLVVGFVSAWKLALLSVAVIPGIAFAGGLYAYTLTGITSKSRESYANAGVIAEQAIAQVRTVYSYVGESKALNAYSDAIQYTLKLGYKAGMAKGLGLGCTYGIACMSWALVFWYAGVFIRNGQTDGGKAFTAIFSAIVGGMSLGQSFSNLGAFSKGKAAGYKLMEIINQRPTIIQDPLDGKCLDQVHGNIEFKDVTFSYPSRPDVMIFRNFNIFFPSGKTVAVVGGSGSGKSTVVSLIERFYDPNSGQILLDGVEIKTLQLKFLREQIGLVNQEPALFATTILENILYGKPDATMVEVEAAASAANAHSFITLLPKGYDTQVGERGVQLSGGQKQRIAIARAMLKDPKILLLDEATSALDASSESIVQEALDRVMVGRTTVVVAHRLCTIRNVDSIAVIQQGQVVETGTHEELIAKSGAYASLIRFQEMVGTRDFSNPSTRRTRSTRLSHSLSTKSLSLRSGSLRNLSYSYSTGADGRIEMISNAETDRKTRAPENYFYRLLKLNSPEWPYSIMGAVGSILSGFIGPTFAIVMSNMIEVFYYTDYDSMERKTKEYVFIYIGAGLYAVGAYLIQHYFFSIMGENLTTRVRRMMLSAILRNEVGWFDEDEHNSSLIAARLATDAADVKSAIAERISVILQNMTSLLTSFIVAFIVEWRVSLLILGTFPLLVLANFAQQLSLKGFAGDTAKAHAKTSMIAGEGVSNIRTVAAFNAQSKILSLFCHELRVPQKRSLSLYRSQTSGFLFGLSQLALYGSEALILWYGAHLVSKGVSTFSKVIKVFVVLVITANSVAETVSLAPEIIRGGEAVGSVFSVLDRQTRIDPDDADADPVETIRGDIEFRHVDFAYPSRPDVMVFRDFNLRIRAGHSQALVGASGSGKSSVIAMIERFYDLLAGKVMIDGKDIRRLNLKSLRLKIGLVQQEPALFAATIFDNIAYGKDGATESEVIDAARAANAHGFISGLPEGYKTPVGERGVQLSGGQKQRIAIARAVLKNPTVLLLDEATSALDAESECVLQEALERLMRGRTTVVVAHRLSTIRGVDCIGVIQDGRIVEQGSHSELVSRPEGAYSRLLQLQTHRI
Excerpt: Expression in Yeast and Xenopus Oocytes. ATPAC cDNA was expressed in wild type yeast as well as in yeasts lacking seven ABC transporters (as described by Decottignies et al., (1998) J. Biol. Chem. 273:12612-22)in order to create a heterologous system for studying function of the transporter. The yeasts were exposed to toxic compounds that are known substrates for human MDR1. […] Further, there was no evidence of a drug-pumping role for ATPAC.
ATPAC Binds the Auxin Transport Inhibitor naphthylphthalamic acid (NPA). Yeast expressing ATPAC was assayed for NPA binding. […] Bound NPA was not displaced by benzoic acid, a related hydrophobic organic acid. Proteins that bind NPA and influence auxin transport are considered important regulators of hormone action and therefore, of plant development.

O=C(O)COc1ccc(Cl)cc1Cl [2,4-D]
Phenotype of treated wild type seedlings [1]: strongly curved organs

O=C(O)c1ccccc1C(=O)Nc1cccc2ccccc12 [NPA, naphthylphthalamic acid]
NPA binding to ATPAC-expressing yeast ([2]; ATPAC-expressing yeast): bound tightly and specifically
NPA binding to control yeast ([2]; control yeast): not to control yeast

O=C(O)Cc1c[nH]c2ccccc12 [auxin]
Phenotype of treated wild type seedlings [1]: strongly curved organs

O=C(O)c1ccccc1 [benzoic acid]
Displacement of bound NPA ([2]; ATPAC-expressing yeast, bound NPA): not displaced
